Reference: publication PMC9364363 (RSC Advances, 2022)
Converted amounts (≈) assume the structure as drawn. Read-outs that look alike come from different tables or passages of the source.

Columns and labels:
Mtb H37Ra^lux = assay: microbe, parasite or virus in culture; type: cell-based, Mycobacterium tuberculosis; conditions: for IC50: read-out: Mtb H37Ra^lux IC50
M. avium subsp. avium = assay: microbe, parasite or virus in culture; type: cell-based, Mycobacterium avium subsp. avium; conditions: read-out: IC50 M. avium subsp. avium
M. intracellulare = assay: microbe, parasite or virus in culture; type: cell-based, Mycobacterium intracellulare; conditions: read-out: IC50 M. intracellulare
M. smegmatis = type: cell-based, Mycobacterium smegmatis; conditions: read-out: IC50 M. smegmatis; luminometry, 3 days
M. abscessus = assay: microbe, parasite or virus in culture; type: cell-based, Mycobacterium abscessus; conditions: read-out: IC50 M. abscessus
[1] = system: MRC-5 lung fibroblast cell line
in vitro = conditions: human

Compound | Mtb H37Ra^lux IC90 (MIC) (Mtb H37Ra^lux) [µM] | IC50 (Mtb H37Ra^lux) [µM] | IC50 (M. avium subsp. avium; luminometry, 7 days) [µM] | IC50 (M. intracellulare; luminometry, 7 days) [µM] | IC50 (M. smegmatis) [µM] | IC50 (M. abscessus; luminometry, 3 days) [µM] | T.I. CC50/IC50 [1] | IC50 (Mtb H37Ra^lux; Mycobacterium tuberculosis, H37RA, 168 h) [µM] | MIC (Mtb H37Ra^lux; Mycobacterium tuberculosis, H37RA, 168 h, read-out: Mtb H37Ra^lux IC90 (MIC)) [µM] | IC50 (M. avium subsp. avium; Mycobacterium avium, 168 h) [µM] | IC50 (M. intracellulare; Mycobacterium intracellulare, 168 h) [µM] | IC50 (M. abscessus; Mycobacteroides abscessus, 72 h) [µM] | CC50 (in vitro) [µM]
(4-(2-(4-((1H-Benzo-[d]-imidazole-2-yl)-thio)-1H-1,2,3-triazol-1-yl)-ethyl)-piperazin-1-yl)(2-methylbenzo-[d]-imidazo[2,1-b]-thiazol-3-yl)-methanone [IT16] | 14.49 | 7.09 | 124 | > 128 | 103 | > 128 | 8.2 | – | – | – | – | – | –
CCCCCCCCCc1cn(CCN2CCN(C(=O)c3c(C)nc4sccn34)CC2)nn1 [IT03, (6-Methylimidazo-[2,1-b]-thiazol-5-yl)(4-(2-(4-nonyl-1H-1,2,3-triazol-1-yl)-ethyl)-piperazin-1-yl)-methanone] | – | – | – | – | – | – | 15.8 | 2.88 | 10.2 (≈ 4.82 µg/mL) | > 128 | 63.4 | > 128 | 45.5
